Measurements reported in patent US12281084B2, “Acetyl-CoA synthetase 2 (ACSS2) inhibitors and methods using same” (The Wistar Institute, priority 2019, dated 2025).

Target: T1, recombinant human ACSS2 (Homo sapiens, UniProt Q9NR19)
T1 construct: purchased Origene TP304260
Assay: ACSS2 biochemical assay (Transcreener AMP assay)
Details: in vitro biochemical TranScreener assay; mean±S.D., n≥3 (FIG. 1C)
Method: ACSS2 enzyme activity was measured using the TRANSCREENER® TRF AMP/GMP assay (Bellbrook Labs). Recombinant ACSS2 was purchased from Origene. The assay was performed in white, opaque, low volume 384 well plates. Test compounds were diluted in 100% DMSO and then 100 nL of each dilution was transferred using the Janus MDT Nanohead to assay plates containing 3 μL ACSS2 (2.5 nM) in assay buffer (30 mM HEPES, pH 7.4, 140 mM NaCl, 2 mM MgCl2, 5 mM sodium acetate, 2 mM DTT, 0.005% Brij35). Three microliters of substrate mix containing 100 μM ATP and 10 μM coenzyme A was added to the plates followed by a 120 min incubation. The final concentrations of enzyme and substrates in the reaction mix was 1.25 nM ACSS2, 50 μM ATP, and 5 μM coenzyme A. After incubation, 3 μL of terbium conjugated AMP antibody and AMP tracer was added to the plates according to the methods described by BellBrook Labs. After an additional 30 min, the HTRF signal was measured using an Envision Plate reader. Data were normalized to % inhibition, where 100% inhibition is equal to the counts obtained in the absence of ACSS2, and 0% inhibition is equal to the counts obtained in the complete reaction including a DMSO control.
A robust biochemical screening assay was set up for testing compounds as potential ACSS2 inhibitors. […]

T1 sequence (Q9NR19 whole entry): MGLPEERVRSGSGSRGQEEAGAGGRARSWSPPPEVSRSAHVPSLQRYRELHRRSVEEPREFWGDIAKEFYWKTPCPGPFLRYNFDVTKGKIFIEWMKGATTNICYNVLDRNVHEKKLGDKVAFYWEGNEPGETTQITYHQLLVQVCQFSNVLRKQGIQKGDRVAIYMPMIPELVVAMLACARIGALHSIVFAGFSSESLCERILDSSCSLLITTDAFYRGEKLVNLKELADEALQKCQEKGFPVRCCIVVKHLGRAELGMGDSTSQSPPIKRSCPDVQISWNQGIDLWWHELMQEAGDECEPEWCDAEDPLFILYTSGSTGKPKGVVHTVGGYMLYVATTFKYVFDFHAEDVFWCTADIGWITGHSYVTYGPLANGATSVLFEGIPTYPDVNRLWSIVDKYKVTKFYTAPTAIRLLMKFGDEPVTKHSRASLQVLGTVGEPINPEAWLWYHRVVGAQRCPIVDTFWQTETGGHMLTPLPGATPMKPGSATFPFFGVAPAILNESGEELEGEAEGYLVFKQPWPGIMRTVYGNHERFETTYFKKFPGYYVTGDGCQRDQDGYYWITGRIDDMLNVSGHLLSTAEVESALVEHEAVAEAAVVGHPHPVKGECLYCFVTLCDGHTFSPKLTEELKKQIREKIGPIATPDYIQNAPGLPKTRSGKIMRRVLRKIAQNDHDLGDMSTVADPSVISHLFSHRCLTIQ

IC50: 1.21 ± 0.128 µM
SMILES: COCCNC(=O)Nc1ccc2nc(-c3cccs3)c(-c3cccs3)nc2c1 [VY-3-249, 1-(2,3-di(thiophen-2-yl)quinoxalin-6-yl)-3-(2-methoxyethyl)urea]
